Experimental data as given in patent US8071600B2, “Derivatives of 4-piperazin-1-yl-4-benzo[B]thiophene suitable for the treatment of CNS disorders” (Otsuka Pharmaceutical Co., Ltd., priority 2005, dated 2011).
pKi: −log10 of the molar value.

Experiments:
Dopamine D2 receptor = target: T1, Dopamine D2 receptor (Rattus norvegicus, UniProt P61169); test: Dopamine D2 receptor binding assay ([3H]-raclopride); conditions: Dopamine D2 receptor binding test, rat corpus striatum membrane, Ki calculated from IC50 by Cheng-Prussoff formula
T1 construct: from tissue; host or cells: Wistar rat brain, corpus striatum membranes
Experimental: 1) Dopamine D2 Receptor Binding Assay
The assay was performed according to the method by Kohler et al. (Kohler C, Hall H, Ogren S O and Gawell L, Specific in vitro and in vivo binding of 3H-raclopride. A potent substituted benzamide drug with high affinity for dopamine D-2 receptors in the rat brain. Biochem. Pharmacol., 1985; 34: 2251-2259).
Wistar male rats were decapitated, the brain was retrieved immediately and corpus striatum was taken out. It was homogenized in 50 mM tris(hydroxymethyl)aminomethane (Tris)-hydrochloric acid buffer (pH 7.4) of a volume 50 times of the weight of the tissue using a homogenizer with a high-speed rotating blade, and centrifuged at 4° C., 48,000×g for 10 minutes. The obtained precipitate was suspended again in the above-described buffer of a volume 50 times of the weight of the tissue and after incubated at 37° C. for 10 minutes, centrifuged in the above-described condition. The obtained precipitate was suspended in 50 mM (Tris)-hydrochloric acid buffer (containing 120 mM NaCl, 5 mM KCl, 2 mM CaCl2, 1 mM MgCl2, pH 7.4) of a volume 25 times of the weight of the tissue and preserved by freezing at −85° C. till it was used for binding assay as a membrane specimen.
The binding assay was performed using 40 μl of the membrane specimen, 20 μl of [^3H]-raclopride (final concentration 1 to 2 nM), 20 μl of a test drug and 50 mM Tris-hydrochloric acid buffer (containing 120 mM NaCl, 5 mM KCl, 2 mM CaCl2, 1 mM MgCl2, pH 7.4) so that the total amount was 200 μl (final dimethylsulfoxide concentration 1%). The reaction was performed at room temperature for 1 hour and terminated by conducting suction filtration with a cell harvester on a glass fiber filter plate. The filter plate made of glass fiber was washed with 50 mM Tris-hydrochloric acid buffer (pH 7.4), and after dried, a microplate liquid scintillation cocktail was added and the radioactivity was measured with a microplate scintillation counter. Radioactivity in the presence of 10 μM (+)-butaclamol hydrochloride was assumed as nonspecific binding.
(§1) IC50 value was calculated from concentration-dependent reaction using a non-linear analysis program. Ki value was calculated from IC50 value using Cheng-Prussoff formula.

[1] = target: T2, Serotonin 5-HT2A receptor (Rattus norvegicus, UniProt P14842); test: Serotonin 5-HT2A receptor binding assay ([3H]-Ketanserin); conditions: Serotonin 5-HT2A receptor binding test, rat frontal cortex membrane, Ki calculated from IC50 by Cheng-Prussoff formula
T2 construct: from tissue; host or cells: Wistar rat brain, frontal cortex membranes
Experimental: 2) Serotonin 5-HT2A Receptor Binding Assay
The assay was performed according to the method by Leysen J E et al. (Leysen J E, Niemegeers C J E, Van Nueten J M and Laduron P M. [3H] Ketanserin (R 41 468), a selective 3H-ligand for serotonin 2 receptor binding sites. Mol. Pharmacol., 1982, 21: 301-314).
Wistar male rats were decapitated, the brain was retrieved immediately and frontal cortex was taken out. It was homogenized in 0.25 M sucrose of a volume 10 times of the weight of the tissue using a Teflon glass homogenizer, and centrifuged at 4° C., 1,000×g for 10 minutes. The obtained supernatant was transferred to another centrifuge tube and suspended in 0.25 M sucrose of a volume 5 times of the weight of the tissue and the precipitate was centrifuged in the above-described condition. The obtained supernatant was combined with the supernatant obtained above and adjusted to a volume 40 times of the weight of the tissue with 50 mM Tris-hydrochloric acid buffer (pH 7.4), and centrifuged at 4° C., 35,000×g for 10 minutes. The obtained precipitate was suspended again in the above-described buffer of a volume 40 times of the weight of the tissue and centrifuged in the above-described condition. The obtained precipitate was suspended in the above-described buffer of a volume 20 times of the weight of the tissue and preserved by freezing at −85° C. till it was used for binding assay as a membrane specimen.
The binding assay was performed using 40 μl of the membrane specimen, 20 μl of [^3H]-Ketanserin (final concentration 1 to 3 nM), 20 μl of a test drug and 50 mM Tris-hydrochloric acid buffer (pH 7.4) so that the total amount was 200 μl (final dimethylsulfoxide concentration 1%). The reaction was performed at 37° C. for 20 minutes and terminated by conducting suction filtration with a cell harvester on a glass fiber filter plate.
The filter plate made of glass fiber was washed with 50 mM Tris-hydrochloric acid buffer (pH 7.4), and after dried, a microplate liquid scintillation cocktail was added and the radioactivity was measured with a microplate scintillation counter. Radioactivity in the presence of 10 μM spiperone was assumed as nonspecific binding.
as §1

[2] = tested on: serotonin (5-HT) uptake by rat brain synaptosome; test: Serotonin (5-HT) uptake inhibitory activity by rat brain synaptosome; type: biochemical; conditions: test compound 300 nM, tritium labeled 5-HT 8 nM, 10 minutes uptake at 37° C.
Experimental: Measurement of serotonin (5-HT) uptake inhibitory activity of a test compound by rat brain synaptosome
Wistar male rats were decapitated, the brain was retrieved and frontal cortex was dissected out, and it was homogenized in 0.32 M sucrose solution of a weight 20 times of the weight of the tissue using a Potter type homogenizer. The homogenate was centrifuged at 4° C., 1,000×g for 10 minutes, the obtained supernatant was further centrifuged at 4° C., 20,000×g for 20 minutes, and the pellet was suspended in an incubation buffer (20 mM Hepes buffer (pH 7.4) containing 10 mM glucose, 145 mM sodium chloride, 4.5 mM potassium chloride, 1.2 mM magnesium chloride, 1.5 mM calcium chloride), which was used as crude synaptosome fraction.
5-HT uptake reaction was performed in a volume of 200 μl using a 96-well round bottom plate and pargyline (final concentration 10 μM) and sodium ascorbate (final concentration 0.2 mg/ml) were contained in the incubation buffer upon reaction and used.
Incubation buffer (total counting), non-labeled 5-HT (final concentration 10 μM, non-specific counting) and the diluted test compound (final concentration 300 nM) were added to each well. One-tenth quantity of the final volume of the synaptosome fraction was added and after preincubated at 37° C. for 10 minutes, tritium labeled 5-HT solution (final concentration 8 nM) was added and uptake reaction was started at 37° C. The uptake time was 10 minutes and the reaction was terminated by vacuum filtration through a 96-well fiber glass filter paper plate, and after the filter paper was washed with cold normal saline, it was dried enough and Microscint0 (Perkin-Elmer) was added to the filter and remaining radioactivity on the filter was measured.
Serotonin uptake inhibitory activity (%) was calculated from the radioactivity of total counting as 100%, of non-specific counting as 0%, and of counting obtained with test compound. % of inhibition of 5-HT(%)=100−[(Count obtained with test compound−Nonspecific count (0% Uptake))/(Total count (100% Uptake)−Nonspecific count (0% Uptake))]×100 The results are shown in the next Table 314.

T1 sequence (P61169 whole entry): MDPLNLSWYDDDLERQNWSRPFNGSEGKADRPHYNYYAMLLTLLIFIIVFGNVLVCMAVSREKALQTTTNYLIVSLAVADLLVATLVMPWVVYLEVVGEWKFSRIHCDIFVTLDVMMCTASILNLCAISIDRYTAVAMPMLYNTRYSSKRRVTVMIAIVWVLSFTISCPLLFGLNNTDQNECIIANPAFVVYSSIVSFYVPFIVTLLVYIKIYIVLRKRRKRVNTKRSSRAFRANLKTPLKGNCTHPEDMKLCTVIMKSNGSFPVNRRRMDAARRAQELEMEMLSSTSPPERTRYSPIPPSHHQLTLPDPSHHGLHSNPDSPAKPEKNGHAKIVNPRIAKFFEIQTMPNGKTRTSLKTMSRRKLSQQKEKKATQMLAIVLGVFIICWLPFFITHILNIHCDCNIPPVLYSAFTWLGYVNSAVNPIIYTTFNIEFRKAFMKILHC
T2 sequence (P14842 whole entry): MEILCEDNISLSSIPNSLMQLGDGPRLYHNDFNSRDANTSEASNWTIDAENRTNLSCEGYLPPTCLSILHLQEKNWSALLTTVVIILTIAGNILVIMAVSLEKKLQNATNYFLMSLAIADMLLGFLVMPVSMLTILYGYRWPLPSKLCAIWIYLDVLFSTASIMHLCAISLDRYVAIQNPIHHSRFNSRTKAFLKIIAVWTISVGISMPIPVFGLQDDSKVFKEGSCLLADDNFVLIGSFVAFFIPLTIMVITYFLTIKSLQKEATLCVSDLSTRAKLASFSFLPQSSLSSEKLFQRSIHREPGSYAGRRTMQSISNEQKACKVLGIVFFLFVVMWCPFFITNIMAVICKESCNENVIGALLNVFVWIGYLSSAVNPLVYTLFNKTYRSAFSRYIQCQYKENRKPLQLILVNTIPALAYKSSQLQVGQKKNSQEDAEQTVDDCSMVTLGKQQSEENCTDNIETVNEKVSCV

| SMILES | pKi (Dopamine D2 receptor) | pKi [1] | melting point | Serotonin uptake inhibitory ratio (%) (300 nM) [2] |
| --- | --- | --- | --- | --- |
| COc1cc(C(N)=O)cc(OC)c1OCCCN1CCN(c2cccc3sccc23)CC1 [Example 243] | 9.70 | 9.30 | 147.5 to 148 °C |  |
| CN(C)C(=O)c1csc(OCCCN2CCN(c3cccc4sccc34)CC2)n1 [Example 1113] | 9.15 | 8.30 |  | 59.3% |
| COC(=O)N1CCN(c2cc(C=O)c(OCCCN3CCN(c4cccc5sccc45)CC3)c(OC)c2)CC1 [Example 1086] | 9.00 | 8.24 |  | 98.6% |
| COc1cc(N2CCCCC2)cc(C)c1OCCCN1CCN(c2cccc3sccc23)CC1 [Example 1089] | 9.00 | 7.86 |  | 85.0% |
| CCNC(=O)Cc1ccc(OCCCN2CCN(c3cccc4sccc34)CC2)cc1 [Example 323] | 8.82 | 9.15 | 112.5 to 113.5 °C |  |
| CNC(=O)c1ccc(OCCCN2CCN(c3cccc4sccc34)CC2)c(N)c1 [Example 232] | 8.96 | 8.57 | 124 to 125.5 °C |  |
| CN(C)c1cc(OCCCCN2CCN(c3cccc4sccc34)CC2)n(C)n1 [Example 1138] | 8.85 | 7.71 |  | 67.2% |
| CNC(=O)c1ccc(OCCCN2CCN(c3cccc4sccc34)CC2)nc1 [Example 27] | 8.82 | 9.00 | 132.5 to 133.5 °C |  |
| CC(=O)Nc1cc(OCCCN2CCN(c3cccc4sccc34)CC2)n(C)n1 [Example 1106] | 9.00 | 8.15 |  | 69.9% |
| COc1cc(N2CCOC2=O)cc(CO)c1OCCCN1CCN(c2cccc3sccc23)CC1 [Example 1071] | 10.00 | 8.89 |  | 94.4% |
| CN(C)C(=O)N1CCC(OCCCN2CCN(c3cccc4sccc34)CC2)CC1 [Example 1110] | 8.92 | 8.31 |  | 38.5% |
| COc1cc(CN(C)C)ccc1OCCCN1CCN(c2cccc3sccc23)CC1 [Example 301] | 9.70 | 9.40 | 101 to 103 °C |  |
| COc1cc(N2CCN(C(C)=O)CC2=O)cc(C)c1OCCCN1CCN(c2cccc3sccc23)CC1 [Example 1079] | 9.40 | 8.55 |  | 82.3% |
| NC(=O)c1ccc(F)c(OCCCN2CCN(c3cccc4sccc34)CC2)c1 [Example 271] | 8.92 | 9.22 | 156.5 to 159 °C |  |
| CNC(=O)c1cc(C)c(OCCCN2CCN(c3cccc4sccc34)CC2)c(C)c1 [Example 241] | 9.40 | 9.15 | 152.5 to 154.5 °C |  |
| COc1cc(C(N)=O)ccc1OCCCN1CCN(c2cccc3sccc23)CC1 [Example 190] | 8.92 | 9.22 | 162 to 163.5 °C |  |
| NS(=O)(=O)c1ccc(OCCCN2CCN(c3cccc4sccc34)CC2)cc1 [Example 394] | 8.42 | 8.33 | 199 to 203 °C |  |
| CNC(=O)c1cnc(OCCCN2CCN(c3cccc4sccc34)CC2)cn1 [Example 61] | 8.30 | 8.31 | 116.5 to 118 °C |  |
| NC(=O)c1ccc(OCCCCN2CCN(c3cccc4sccc34)CC2)cc1 [Example 169] | 9.05 | 8.59 | 150 to 151.5 °C |  |
| O=c1[nH]cnc2ccc(OCCCN3CCN(c4cccc5sccc45)CC3)cc12 [Example 94] | 8.62 | 8.70 | 213.1 to 218.5 °C |  |
| CNC(=O)c1cc(OCCCN2CCN(c3cccc4sccc34)CC2)n(C)n1.Cl [Example 3, N-methyl-5-[3-(4-benzo[b]thiophen-4-yl-piperazin-1-yl)propoxy]-1-methyl-1H-pyrazole-3-carboxamide hydrochloride] | 8.82 | 8.22 | 228 to 232.5 °C (dec.) |  |
| COc1cc(N(C)C(C)=O)cc(C)c1OCCCN1CCN(c2cccc3sccc23)CC1.Cl [Example 14, N-{4-[3-(4-benzo[b]thiophen-4-yl-piperazin-1-yl)propoxy]-3-methoxy-5-methylphenyl}-N-methylacetamide hydrochloride] | 9.52 | 8.62 | 230 to 234 °C (dec.) |  |
| CNC(=O)c1cc(C)c(OCCCN2CCN(c3cccc4sccc34)CC2)c(OC)c1 [Example 252] | 9.52 | 9.52 | 141.5 to 142.5 °C |  |
| NC(=O)c1cc(OCCCN2CCN(c3cccc4sccc34)CC2)ccn1 [Example 48] | 8.64 | 8.42 | 150 to 150.5 °C |  |
| CNC(=O)c1csc(OCCCN2CCN(c3cccc4sccc34)CC2)n1.Cl [Example 6, N-methyl-2-[3-(4-benzo[b]thiophen-4-yl-piperazin-1-yl)propoxy]thiazole-4-carboxamide hydrochloride] | 9.15 | 8.48 | 199.5 to 202.5 °C |  |
| NC(=O)Cc1ccc(OCCCN2CCN(c3cccc4sccc34)CC2)cc1 [Example 340] | 8.72 | 8.32 | 149.5 to 150.5 °C |  |
| CNC(=O)c1ccc(OCCCN2CCN(c3cccc4sccc34)CC2)c(C)c1 [Example 186] | 8.89 | 8.70 | 156.5 to 158 °C |  |
| CNC(=O)c1ccc(OCCCCN2CCN(c3cccc4sccc34)CC2)cc1 [Example 170] | 9.00 | 8.48 | 154 to 156 °C |  |
